Structures are written as SMILES.

A word on the IC50: it is the concentration needed to halve the response being measured.

This assay relates to MV-4-11 cells. Kind of assay: Cell Viability Assay in MV-4-11 Cells. In kind it is cell-based. Particulars: Homo sapiens, MV4-11, 72 h, MV-4-11 cells, 72 h, Cell-Titer Glo; read-out: IC50. A digest of the protocol: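 MV-4-11 cells at 7,000/well in IMDM with 10% FBS, exposed to compound for 72 h. Viability by CellTiter-Glo luminescence, normalized to DMSO as 100%, fitted with a four-parameter curve.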
As for `COc1ccc(C)c2c(N(C(=O)c3ccc(-c4nnc(C)s4)cc3)[C@@H]3CCCNC3)nccc12` [Example 871, N-(5-methoxy-8-methyl-1-isoquinolyl)-4-(5-methyl-1,3,4-thiadiazol-2-yl)-N-[(3R)-3-piperidyl]benzamide], the IC50 came out at 720 nM.

As for `COc1ccc(C)c2c(N(C(=O)c3ccc(-c4cn(C)nn4)cc3)[C@@H]3CCCNC3)nccc12` [Example 872, N-(5-methoxy-8-methyl-1-isoquinolyl)-4-(1-methyltriazol-4-yl)-N-[(3R)-3-piperidyl]benzamide], the IC50 came out at 2100 nM.

With `COc1ccc(F)c2c(N(C(=O)c3ccc(-c4cn(C)nn4)cc3)[C@@H]3CCCNC3)nccc12` [Example 873, N-(8-fluoro-5-methoxy-1-isoquinolyl)-4-(1-methyltriazol-4-yl)-N-[(3R)-3-piperidyl] benzamide], the concentration for half-maximal inhibition (IC50) is over 5200 nM.

For the compound `COc1c(F)ccc2c(N(C(=O)c3ccc(-c4cn(C)nn4)cc3F)[C@@H]3CCCNC3)nccc12` [Example 874, 2-fluoro-N-(6-fluoro-5-methoxy-1-isoquinolyl)-4-(1-methyltriazol-4-yl)-N-[(3R)-3-piperidyl] benzamide], the 50% inhibitory concentration (IC50) was found to be 4000 nM.

Turning to `COCc1nnc(-c2ccc(C(=O)N(c3nccc4scc(C)c34)[C@@H]3CCCNC3)cc2)s1` [Example 875, 4-[5-(methoxymethyl)-1,3,4-thiadiazol-2-yl]-N-(3-methylthieno[3,2-c]pyridin-4-yl)-N-[(3R)-3-piperidyl]benzamide], the IC50 is 86 nM.

As to `COCCCc1nnc(-c2ccc(C(=O)N(c3nccc4scc(C)c34)[C@@H]3CCCNC3)cc2)s1` [Example 876, 4-[5-(3-methoxypropyl)-1,3,4-thiadiazol-2-yl]-N-(3-methylthieno[3,2-c]pyridin-4-yl)-N-[(3R)-3-piperidyl]benzamide], the IC50 is 290 nM.

As for `Cc1nnc(-c2ccc(C(=O)N(c3nccc4c(C)ccc(C)c34)[C@@H]3CCCNC3)nc2)s1` [Example 877, N-(5,8-dimethyl-1-isoquinolyl)-5-(5-methyl-1,3,4-thiadiazol-2-yl)-N-[(3R)-3-piperidyl]pyridine-2-carboxamide], the half-inhibitory concentration (IC50) was found to be 790 nM.

`Cc1nnc(-c2ccc(C(=O)N(c3nccc4c(C)ccc(C)c34)[C@@H]3CCCNC3)cc2)s1` [Example 878, N-(5,8-dimethyl-1-isoquinolyl)-4-(5-methyl-1,3,4-thiadiazol-2-yl)-N-[(3R)-3-piperidyl]benzamide]: the IC50 came to 560 nM.

As to `Cc1cccc2ccnc(N(C(=O)c3ccc(-c4nnc(CCC#N)s4)cc3F)[C@@H]3CCCNC3)c12` [Example 879, 4-[5-(2-cyanoethyl)-1,3,4-thiadiazol-2-yl]-2-fluoro-N-(8-methyl-1-isoquinolyl)-N-[(3R)-3-piperidyl]benzamide], the IC50 is 110 nM.

`Cc1cccc2ccnc(N(C(=O)c3ccc(-c4nnc(CCC#N)s4)cc3)[C@@H]3CCCNC3)c12` [Example 880, 4-[5-(2-cyanoethyl)-1,3,4-thiadiazol-2-yl]-N-(8-methyl-1-isoquinolyl)-N-[(3R)-3-piperidyl]benzamide]: the IC50 worked out at 180 nM.

Consider `Cc1csc2ccnc(N(C(=O)c3ccc(-c4cn(CCC#N)nn4)cc3F)[C@@H]3CCCNC3)c12` [Example 881, 4-[1-(2-cyanoethyl)triazol-4-yl]-2-fluoro-N-(3-methylthieno[3,2-c]pyridin-4-yl)-N-[(3R)-3-piperidyl]benzamide], for which the IC50 turned out to be 150 nM.

Turning to `Cc1csc2ccnc(N(C(=O)c3ccc(-c4nnc(CCC#N)s4)cc3)[C@@H]3CCCNC3)c12` [Example 882, 4-[5-(2-cyanoethyl)-1,3,4-thiadiazol-2-yl]-N-(3-methylthieno[3,2-c]pyridin-4-yl)-N-[(3R)-3-piperidyl]benzamide], the IC50 was found to be 180 nM.

With `Cc1csc2ccnc(N(C(=O)c3ccc(-c4nnc(CCC#N)s4)cc3F)[C@@H]3CCCNC3)c12` [Example 883, 4-[5-(2-cyanoethyl)-1,3,4-thiadiazol-2-yl]-2-fluoro-N-(3-methylthieno[3,2-c]pyridin-4-yl)-N-[(3R)-3-piperidyl]benzamide], the IC50 was 160 nM.

Regarding `Cc1cc(Cl)cc2ccnc(N(C(=O)c3ccc(-c4cn(C)nn4)nc3)[C@@H]3CCCNC3)c12` [Example 884, N-(6-chloro-8-methyl-1-isoquinolyl)-6-(1-methyltriazol-4-yl)-N-[(3R)-3-piperidyl]pyridine-3-carboxamide], the IC50 stood at 57 nM.

As to `CCn1cc(-c2ccc(C(=O)N(c3nccc4scc(C)c34)[C@@H]3CCCNC3)cn2)nn1` [Example 885, 6-(1-ethyltriazol-4-yl)-N-(3-methylthieno[3,2-c]pyridin-4-yl)-N-[(3R)-3-piperidyl]pyridine-3-carboxamide], the IC50 was 110 nM.

As to `C=Cc1csc2ccnc(N(C(=O)c3ccc(-c4nnc(C)s4)cc3F)[C@@H]3CCCNC3)c12` [Example 886, 2-fluoro-4-(5-methyl-1,3,4-thiadiazol-2-yl)-N-[(3R)-3-piperidyl]-N-(3-vinylthieno[3,2-c]pyridin-4-yl)benzamide], the concentration for half-maximal inhibition (IC50) stood at 180 nM.

`C=C(C)c1ccnc(N(C(=O)c2ccc(-c3cn(C)nn3)cc2F)[C@@H]2CCCNC2)c1` [Example 887, 2-fluoro-N-(4-isopropenyl-2-pyridyl)-4-(1-methyltriazol-4-yl)-N-[(3R)-3-piperidyl]benzamide]: the IC50 was over 6300 nM.

As to `Cc1cccc2ccnc(N(C(=O)c3ccc(-c4cn(CCC#N)nn4)cc3F)[C@@H]3CCCNC3)c12` [Example 888, 4-[1-(2-cyanoethyl)triazol-4-yl]-2-fluoro-N-(8-methyl-1-isoquinolyl)-N-[(3R)-3-piperidyl]benzamide], the IC50 came out at 26 nM.

Turning to `[2H]C([2H])([2H])Oc1cc(C)c2c(N(C(=O)c3ccc(-c4cn(CC)nn4)cc3F)[C@@H]3CCCNC3)nccc2c1` [Example 889, 4-(1-ethyltriazol-4-yl)-2-fluoro-N-[8-methyl-6-(trideuteriomethoxy)-1-isoquinolyl]-N-[(3R)-3-piperidyl]benzamide], the IC50 worked out at 41 nM.

In the case of `[2H]C([2H])([2H])n1cc(-c2ccc(C(=O)N(c3nccc4cccc(C)c34)[C@@H]3CCCNC3)c(F)c2)nn1` [Example 890, 2-fluoro-N-(8-methyl-1-isoquinolyl)-N-[(3R)-3-piperidyl]-4-[1-(trideuteriomethyl)triazol-4-yl]benzamide], the IC50 amounted to 60 nM.

For the compound `[2H]C([2H])([2H])n1cc(-c2ccc(C(=O)N(c3nccc4cc(F)cc(C)c34)[C@@H]3CCCNC3)c(F)c2)nn1` [Example 891, 2-fluoro-N-(6-fluoro-8-methyl-1-isoquinolyl)-N-[(3R)-3-piperidyl]-4-[1-(trideuteriomethyl)triazol-4-yl]benzamide], the half-maximal inhibitory concentration (IC50) was found to be 44 nM.

As for `[2H]C([2H])([2H])n1cc(-c2ccc(C(=O)N(c3nccc4cc(Cl)cc(C)c34)[C@@H]3CCCNC3)cc2)nn1` [Example 892, N-(6-chloro-8-methyl-1-isoquinolyl)-N-[(3R)-3-piperidyl]-4-[1-(trideuteriomethyl)triazol-4-yl] benzamide], the IC50 came out at 51 nM.

Turning to `[2H]C([2H])([2H])n1cc(-c2ccc(C(=O)N(c3nccc4cc(Cl)cc(C)c34)[C@@H]3CCCNC3)c(F)c2)nn1` [Example 893, N-(6-chloro-8-methyl-1-isoquinolyl)-2-fluoro-N-[(3R)-3-piperidyl]-4-[1-(trideuteriomethyl)triazol-4-yl]benzamide], the IC50 was 40 nM.

Turning to `[2H]C([2H])([2H])c1nnc(-c2ccc(C(=O)N(c3nccc4scc(C)c34)[C@@H]3CCCNC3)cc2)s1` [Example 894, N-(3-methylthieno[3,2-c]pyridin-4-yl)-N-[(3R)-3-piperidyl]-4-[5-(trideuteriomethyl)-1,3,4-thiadiazol-2-yl]benzamide], the IC50 was 130 nM.

Consider `COCc1nnc(-c2ccc(C(=O)N(c3nccc4cc(Cl)cc(C)c34)[C@@H]3CCCNC3)cn2)s1` [Example 895, N-(6-chloro-8-methyl-1-isoquinolyl)-6-[5-(methoxymethyl)-1,3,4-thiadiazol-2-yl]-N-[(3R)-3-piperidyl]pyridine-3-carboxamide], for which the IC50 amounted to 53 nM.

Take `COCc1nnc(-c2ccc(C(=O)N(c3nccc4cc(C)cc(C)c34)[C@@H]3CCCNC3)cn2)s1` [Example 896, N-(6,8-dimethyl-1-isoquinolyl)-6-[5-(methoxymethyl)-1,3,4-thiadiazol-2-yl]-N-[(3R)-3-piperidyl] pyridine-3-carboxamide]: the IC50 is 46 nM.

Turning to `Cc1nnc(-c2ccc(C(=O)N(c3nccc4c(C)ccc(C)c34)[C@@H]3CCCNC3)cn2)s1` [Example 897, N-(5,8-dimethyl-1-isoquinolyl)-6-(5-methyl-1,3,4-thiadiazol-2-yl)-N-[(3R)-3-piperidyl] pyridine-3-carboxamide], the IC50 turned out to be 140 nM.

As to `Cc1nnc(-c2ccc(C(=O)N(c3nccc4c(Cl)ccc(C)c34)[C@@H]3CCCNC3)cn2)s1` [Example 898, N-(5-chloro-8-methyl-1-isoquinolyl)-6-(5-methyl-1,3,4-thiadiazol-2-yl)-N-[(3R)-3-piperidyl] pyridine-3-carboxamide], the IC50 is 120 nM.

As to `[2H]C([2H])([2H])c1nnc(-c2ccc(C(=O)N(c3nccc4cccc(C)c34)[C@@H]3CCCNC3)c(F)c2)s1` [Example 899, 2-fluoro-N-(8-methyl-1-isoquinolyl)-N-[(3R)-3-piperidyl]-4-[5-(trideuteriomethyl)-1,3,4-thiadiazol-2-yl]benzamide], the IC50 was 150 nM.

Consider `CCc1nnc(-c2ccc(C(=O)N(c3nccc4cccc(C)c34)[C@@H]3CCCNC3)cn2)s1` [Example 900, 6-(5-ethyl-1,3,4-thiadiazol-2-yl)-N-(8-methyl-1-isoquinolyl)-N-[(3R)-3-piperidyl] pyridine-3-carboxamide], for which the IC50 amounted to 70 nM.

Take `COc1cc(C)c2c(N(C(=O)c3ccc(-c4nnc(C)s4)nc3)[C@@H]3CCCNC3)nccc2c1` [Example 901, N-(6-methoxy-8-methyl-1-isoquinolyl)-6-(5-methyl-1,3,4-thiadiazol-2-yl)-N-[(3R)-3-piperidyl]pyridine-3-carboxamide]: the IC50 stood at 48 nM.

The values above are taken from patent publication US20240400555A1 (Initial Therapeutics, Inc., priority 2023, published 2024).
